In patent US20020142347A1, “Biosensor” (BIOSENSOR ApS, priority 2000, published 2002):
Residue numbers refer to the chain shown, from its start.

Experiments:
FACI53 = biological target: T1, FACI53 (Bos taurus, UniProt P07107, A54C); test: Fluorescence emission change of FACI-53 on titration with CoA and acyl-CoA esters; type: binding, bovine
T1 construct: badan (6-bromoacetyl-2-dimethylaminonaphthalene) fluorophore on the introduced Cys-53; made in house; host or cells: E. coli BL21(DE3)pLysS, pET3a vector
T1 sequence (P07107 2-87 A54C): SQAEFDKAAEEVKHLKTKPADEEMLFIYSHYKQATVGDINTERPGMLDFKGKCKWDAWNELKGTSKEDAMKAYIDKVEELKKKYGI

FACI-24 = biological target: T2, FACI-24 (Bos taurus, UniProt P07107, M25C); test: Fluorescence titration equilibrium binding analysis of CoA and acyl-CoA esters to FACI-24; design: species or system bovine; details: FACI-24 (1.5 μM) titrated with increasing CoA and acyl-CoA concentration; fitted binding curves, emission 460 nm; read-out: Kd (nM) ± S.E.
T2 construct: made in house; host or cells: E. coli BL21(DE3)pLysS, pET3a vector
T2 sequence (P07107 2-87 M25C): T1 sequence (P07107 2-87 A54C) with M24C, C53A
Method: Development of a mathematical expression describing the relationship between acyl-CoA concentration and FACI-24 fluorescence was performed essentially as by Richieri et al 1992, J Biol Chem, 267:23495-23501. However, where ligand binding to ADIFAB induces both a fluorescence intensity increase around 505 nm and a fluorescence intensity decrease around 432 nm, ligand binding to FACI-24 only causes an increase in fluorescence around 460 nm.
Derivatisation of an expression for the fluorescence value as a function of the acyl-coA concentration was done using the Scatchard equation as a starting point: [formula]
which has been used to fit the titration data.
The curves represent the best fit analysis from two independent experiment calculated and normalized as described above. The FACI-24 binding affinity increases dramatically when the acyl-chain length increases from C8 to C10 and C12, a smaller but significant drop in Kd is seen by increasing chain length from C12 to C14. C14 to C18 saturated acyl-CoA esters and C18:1-CoA binds with similar and very high affinities to FACI-24. In >0.1 M salt, FACI-24 binds acyl-CoAs with higher affinity and similar specificity as native unmodified bovine ACBP. The Kd for binding of C12-CoA and C16-CoA to native ACBP is 40 and 2.0 nM, respectively (Fulcery et al Biochemical, 1997, 325:423-428; Færgeman et al 1996, Biochemistry, 35:14118-14126). FACI-24 is highly specific for binding long-chain acyl-CoA esters.
Titration of FACI with acyl-CoAs was done using a SPEX FLOUROLOG (Industries Inc, Edison N.J., USA) with excitation at 387 nm and emission at 460 nm, with both excitation and emission slits set to 4.5 nm. FACI (0.5-4.5 uM, as indicated) was dissolved in 1.5 ml binding buffer (10 mM HEPES 150 mM NaCl, 5 mM KCl, 1 mM Na2HPO4, pH 7.4) and titrated with a 10 μM acyl-CoA dissolved in binding buffer, with or without FACI added, as indicated. Fluorescence emission values (counts per second) measured without FACI added to the ligand stock solution were corrected for titrand dilution.
Up to four parameters were fitted in this way, these were B, representing the point of saturation on the X axis, H, representing the maximum fluorescence, i.e. the fluorescence at saturating concentration of acyl-CoA, L, the minimum fluorescence value, i.e. the fluorescence of FACI-24 alone in buffer, and K, the Kd value lor the acyl-CoA in question. Initial estimates for the fittable parameters were typically: B=1, H=maximum fluorescence value measured, L=minimum fluorescence value measured (at acyl-CoA-concentration=0), and K as judged from the raw data, typically from 0.0001 uM to 0.1 uM for acyl-CoA longer than C10:0-CoA.
For each acyl-CoA at least two titrations and fittings were performed. To consider two or more titrations of the same acyl-CoA together and obtain a Kd value using all these titrations, both axes of the raw data were standardised using the fitted values of B, H and L in this way:
X axis standard=(raw X axis values)/Bfitted
Y axis standard=[(raw Y axis values)−Lfitted]/[Hfitted−Lfitted]
In this way all Y axis values should come to lie between 0 and 1 and the X axis value should be 1 at the point of saturation (FACI-24:acyl-CoA 1:1). Such adjusted data were pooled and fitted using DataFit. Typically, both H and B fitted to values close to 1 and L fitted to values close to 0. K was typically fitted to values somewhere between the two values obtained for the raw data.
This could be overcome by removing B from the fittable parameters list and instead setting it to a constant value of 1 and fitting again. This was typically done for both the raw and the standardised data.

`CCCCCCCCCCCCCCCC(=O)SCCNC(=O)CCNC(=O)[C@H](O)C(C)(C)COP(=O)(O)OP(=O)(O)OC[C@H]1O[C@@H](n2cnc3c(N)ncnc32)[C@H](O)[C@@H]1OP(=O)(O)O` [C16:0-CoA, palmitoyl-CoA] was tested, and the “Magnitude of emission of FACI-53, fold increase” value (FACI53) was 1.3 fold, the “Fluorescence emission maximum of FACI-53 with ligand” value (FACI53; 525 nm when no ligand present, excitation 400 nm) was 496 nm and the “Relative emission of FACI-53 at 495 nm, fold increase” value (FACI53; emission at 495 nm) was 2.2 fold. For the same compound, the Kd (FACI-24) was 0.65 ± 0.26 nM.
